From US4735959A, “Carboxylic acid amides and pharmaceutical compositions containing them” (Dr. Karl Thomae GmbH, priority 1981, dated 1988)
Like-named read-outs stand apart in the source and are kept apart here.

System: blood-sugar
Test: Blood-sugar lowering activity in starved female rats after oral administration
Type: in vivo
Settings: for change in vivo at 5 mg/kg / change in vivo at 1 mg/kg / change in vivo at 10 mg/kg: Rattus norvegicus, po, read-out: Blood-sugar lowering activity, percent as compared with the controls
Method: The blood-sugar lowering activity of the test compounds was determined in home-bred female rats with weights of from 180 to 220 grams. Twenty-four hours before starting the test the animals were starved. Before the test the compounds were suspended in 1.5% methyl cellulose and administered to the animals by means of an esophageal tube.
Blood was taken from the retroorbital plexus vein before administration of the test compounds as well as each of 1, 2, 3, and 4 hours after administration. Fifty microliters of each sample were deproteinized with 0.5 ml of 0.33N perchloric acid and centrifuged. The glucose content was determined in the supernatant according to the Hexokinase method by means of an analysis photometer. The statistical evalulation was performed with the t-test according to Student with p=0.05.

[1] = 5 mg/kg orally, 1 hour, n.s. = not statistically significant
[2] = 5 mg/kg orally, 2 hours, n.s. = not statistically significant
[3] = 5 mg/kg orally, 3 hours, n.s. = not statistically significant
[4] = 5 mg/kg orally, 4 hours, n.s. = not statistically significant
[5] = 1 mg/kg orally, 1 hour, n.s. = not statistically significant
[6] = 1 mg/kg orally, 2 hours, n.s. = not statistically significant
[7] = 1 mg/kg orally, 3 hours, n.s. = not statistically significant
[8] = 1 mg/kg orally, 4 hours, n.s. = not statistically significant
[9] = 10 mg/kg orally (footnote *), 3 hours, n.s. = not statistically significant
[10] = 10 mg/kg orally (footnote *), 4 hours, n.s. = not statistically significant
[11] = 10 mg/kg orally (footnote *), 1 hour
[12] = 10 mg/kg orally (footnote *), 2 hours

Structure (SMILES)	change in vivo at 5 mg/kg [1] [%]	change in vivo at 5 mg/kg [2] [%]	change in vivo at 5 mg/kg [3] [%]	change in vivo at 5 mg/kg [4] [%]	change in vivo at 1 mg/kg [5] [%]	change in vivo at 1 mg/kg [6] [%]	change in vivo at 1 mg/kg [7] [%]	change in vivo at 1 mg/kg [8] [%]	Blood-sugar lowering activity, percent as compared with the controls [7]	Blood-sugar lowering activity, percent as compared with the controls [8]	Blood-sugar lowering activity, percent as compared with the controls [9]	Blood-sugar lowering activity, percent as compared with the controls [10]	change in vivo at 10 mg/kg [11] [%]	change in vivo at 10 mg/kg [12] [%]	Blood-sugar lowering activity, percent as compared with the controls [4]	change in vivo at 10 mg/kg [9] [%]	change in vivo at 10 mg/kg [10] [%]	Blood-sugar lowering activity, percent as compared with the controls [3]
CC(NC(=O)Cc1ccc(C(=O)O)cc1)c1cccc(Cl)c1N1CCCCC1 (stereo not shown) [Y, 4-[(1-(3-Chloro-2-piperidino-phenyl)-1-ethyl)-aminocarbonylmethyl]-benzoic acid]	-32	-24	-16	-18	–	–	–	–	–	–	–	–	–	–	–	–	–	–
CCCC/C=C(\NC(=O)Cc1ccc(C(=O)OCC)cc1)c1ccccc1N1CCCCC1 [E, (Z)-4-[(1-(2-Piperidino-phenyl)-1-hexen-1-yl)-aminocarbonylmethyl]-benzoic acid ethyl ester]	-46	-40	-38	-26	-23	-23	-12	-18	–	–	–	–	–	–	–	–	–	–
CC1CCCCN1c1ccccc1C(NC(=O)Cc1ccc(C(=O)O)cc1)c1ccccc1 (stereo not drawn) [AQ, 4-[(2-(2-Methyl-piperidino)-α-phenyl-benzyl)-aminocarbonylmethyl]-benzoic acid]	-32	-31	-24	-19	-16	-11	–	–	n.s.	n.s.	–	–	–	–	–	–	–	–
O=C(Cc1ccc(C(=O)O)cc1)NC(c1ccccc1)c1cccc(Cl)c1N1CCCCC1 (stereo not drawn) [AS, 4-[(3-Chloro-α-phenyl-2-piperidino-benzyl)-aminocarbonylmethyl]-benzoic acid]	-45	-44	-42	-32	-21	-13	–	–	n.s.	n.s.	–	–	–	–	–	–	–	–
CCCCCC(NC(=O)Cc1ccc(C(=O)O)cc1)c1ccccc1N1CCCCC1 (stereo not shown) [N, 4-[(1-(2-Piperidino-phenyl)-1-hexyl)-aminocarbonylmethyl]-benzoic acid]	-42	-42	-37	-33	–	–	–	–	–	–	–	–	–	–	–	–	–	–
COCC(NC(=O)Cc1ccc(C(=O)O)cc1)c1ccccc1N1CCCCC1 (stereo not shown) [Compound P, 4-[(2-Methoxy-1-(2-piperidino-phenyl)-1-ethyl)-aminocarbonylmethyl]-benzoic acid]	-49	-43	-34	-22	-37	-19	–	–	n.s.	n.s.	–	–	–	–	–	–	–	–
O=C(Cc1ccc(C(=O)O)cc1)NC(CCc1ccccc1)c1ccccc1N1CCCCC1 (stereo not shown) [O, 4-[(3-Phenyl-1-(2-piperidino-phenyl)-1-propyl)-aminocarbonylmethyl]-benzoic acid]	–	–	–	–	–	–	–	–	–	–	n.s.	n.s.	-38	-31	–	–	–	–
Cc1cccc(N2CCCCC2)c1C(NC(=O)Cc1ccc(C(=O)O)cc1)c1ccccc1 (stereo not drawn) [AN, 4-[(6-Methyl-α-phenyl-2-piperidino-benzyl)-aminocarbonylmethyl]-benzoic acid]	-39	-35	-27	-26	-27	-24	–	–	n.s.	n.s.	–	–	–	–	–	–	–	–
CCCC(NC(=O)Cc1ccc(C(=O)O)cc1)c1ccccc1N1CCCC1 (stereo not shown) [H, 4-[(1-(2-Pyrrolidino-phenyl)-1-butyl)-aminocarbonylmethyl]-benzoic acid]	-50	-46	-44	-45	–	–	–	–	–	–	–	–	–	–	–	–	–	–
O=C(Cc1ccc(C(=O)O)cc1)NC(c1ccncc1)c1ccccc1N1CCCCC1 (stereo not drawn) [AH, 4-[(2-Piperidino-α-(4-pyridyl)-benzyl)-aminocarbonylmethyl]-benzoic acid]	-41	-37	-20	–	-26	-14	–	–	n.s.	n.s.	–	–	–	–	n.s.	–	–	–
O=C(Cc1ccc(C(=O)O)cc1)NC(c1ccccc1)c1ccc(Cl)cc1N1CCCCC1 (stereo not drawn) [AM, 4-[(4-Chloro-α-phenyl-2-piperidino-benzyl)-aminocarbonylmethyl]-benzoic acid]	-34	-35	-32	-29	-11	-13	–	–	n.s.	n.s.	–	–	–	–	–	–	–	–
Cc1ccc(C(NC(=O)Cc2ccc(C(=O)O)cc2)c2ccccc2)c(N2CCCCC2)c1 (stereo not drawn) [AO, 4-[(4-Methyl-α-phenyl-2-piperidino-benzyl)-aminocarbonylmethyl]-benzoic acid]	-37	-34	-32	-31	–	-17	-15	-11	–	–	–	–	–	–	–	–	–	–
CCCC(NC(=O)Cc1ccc(CO)cc1)c1ccccc1N1CCCCC1 (stereo not shown) [R, 4-[(1-(2-Piperidino-phenyl)-1-butyl)-aminocarbonylmethyl]-benzyl alcohol]	-38	-40	-35	-29	-39	-34	-29	-24	–	–	–	–	–	–	–	–	–	–
C=C(NC(=O)Cc1ccc(C(=O)O)cc1)c1ccccc1N1CCCCCCCC1 [X, 4-[(1-(2-Octahydroazonino-phenyl)-1-ethenyl)-aminocarbonylmethyl]-benzoicacid]	–	–	–	–	–	–	–	–	–	–	–	–	-34	-21	–	-17	-14	–
CCCC(NC(=O)Cc1ccc(C(=O)OCC)cc1)c1ccccc1N1CCCCC1 (single isomer, unassigned; (+)) [L, (+)-4-[(1-(2-Piperidino-phenyl)-1-butyl)-aminocarbonylmethyl]-benzoic acid ethyl ester]	-42	-45	-31	-22	-14	-18	-14	–	–	n.s.	–	–	–	–	–	–	–	–
CCCC(NC(=O)Cc1ccc(C(=O)O)cc1)c1ccc(OC)cc1N1CCCCC1 (stereo not shown) [W, 4-[(1-(4-Methoxy-2-piperidino-phenyl)-1-butyl)-aminocarbonylmethyl]-benzoic acid]	-46	-45	-39	-37	-36	-25	-16	–	–	n.s.	–	–	–	–	–	–	–	–
N#CC(NC(=O)Cc1ccc(C(=O)O)cc1)c1ccccc1N1CCCCC1 (stereo not drawn) [Q, 4-[(α-Cyano-2-piperidino-benzyl)-aminocarbonylmethyl]-benzoic acid]	-28	-13	–	–	–	–	–	–	–	–	–	–	–	–	n.s.	–	–	n.s.
CC/C=C(\NC(=O)Cc1ccc(C(=O)O)cc1)c1ccccc1N1CCCC(C)(C)C1 [G, (Z)-4-[(1-(2-(3,3-Dimethyl-piperidino)-phenyl)-1-buten-1-yl)-aminocarbonylmethyl]-benzoic acid]	–	–	–	–	-44	-42	-37	-31	–	–	–	–	–	–	–	–	–	–
